Measured values as given in ChEMBL document CHEMBL4152303, “Structure-activity relationships of imidazothiazinones and analogs as antagonists of the cannabinoid-activated orphan G protein-coupled receptor GPR18” (Eur J Med Chem, 2018).

What was measured:
[1] = biological target: T1, N-arachidonyl glycine receptor (Homo sapiens) (UniProt Q14330); assay: (§1) Antagonist activity at recombinant human GPR18 expressed in CHO cells assessed as inhibition of delta9-THC-induced beta-arrestin recruitment preincubated for 60 mins followed by delta9-THC addition for 90 mins measured for 1 sec by luminescence assay; assay type: functional, cell-based
T1 sequence (whole entry): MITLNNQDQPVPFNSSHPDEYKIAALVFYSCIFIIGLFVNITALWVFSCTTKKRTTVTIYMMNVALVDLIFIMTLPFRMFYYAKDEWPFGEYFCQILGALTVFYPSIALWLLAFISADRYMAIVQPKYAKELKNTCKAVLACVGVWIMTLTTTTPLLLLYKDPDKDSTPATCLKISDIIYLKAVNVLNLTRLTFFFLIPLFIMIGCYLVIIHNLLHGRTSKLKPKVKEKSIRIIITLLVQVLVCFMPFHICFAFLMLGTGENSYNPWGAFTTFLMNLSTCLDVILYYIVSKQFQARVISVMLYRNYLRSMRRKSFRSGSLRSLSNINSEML

[2] = biological target: T2, N-arachidonyl glycine receptor (Homo sapiens, UniProt Q14330); assay: as §1; assay type: functional, cell-based
T2 sequence (Q14330 whole entry): T1 sequence (whole entry)

[3] = biological target: T1, N-arachidonyl glycine receptor (Homo sapiens); assay: (§2) Agonist activity at recombinant human GPR18 expressed in CHO cells assessed as increase in beta-arrestin recruitment incubated for 60 mins measured for 1 sec by luminescence assay; assay type: functional, cell-based
[4] = biological target: T2, N-arachidonyl glycine receptor; assay: as §2; assay type: functional, cell-based
[5] = biological target: T3, G-protein coupled receptor 55 (Homo sapiens, UniProt Q9Y2T6); assay: Antagonist activity at recombinant human GPR55 expressed in CHO cells assessed as inhibition of lysophosphatidylinositol-induced beta-arrestin recruitment preincubated for 60 mins followed by lysophosphatidylinositol addition for 90 mins measured for 1 sec by luminescence assay; assay type: functional, cell-based
[6] = biological target: T3, G-protein coupled receptor 55; assay: Agonist activity at recombinant human GPR55 expressed in CHO cells assessed as increase in beta-arrestin recruitment incubated for 60 mins measured for 1 sec by luminescence assay; assay type: functional, cell-based
[7] = biological target: Cannabinoid receptor 1 (Homo sapiens, UniProt P21554); assay: Displacement of [3H]CP55940 from recombinant human CB1 receptor expressed in CHO cell membranes after 2 hrs by liquid scintillation counting method; conditions: for inhibition: concentration not given here
[8] = biological target: Cannabinoid receptor 2 (Homo sapiens, UniProt P34972); assay: Displacement of [3H]CP55940 from recombinant human CB2 receptor expressed in CHO cell membranes after 2 hrs by liquid scintillation counting method; conditions: for inhibition: concentration not given here
Sequence of Cannabinoid receptor 2 (P34972 whole entry): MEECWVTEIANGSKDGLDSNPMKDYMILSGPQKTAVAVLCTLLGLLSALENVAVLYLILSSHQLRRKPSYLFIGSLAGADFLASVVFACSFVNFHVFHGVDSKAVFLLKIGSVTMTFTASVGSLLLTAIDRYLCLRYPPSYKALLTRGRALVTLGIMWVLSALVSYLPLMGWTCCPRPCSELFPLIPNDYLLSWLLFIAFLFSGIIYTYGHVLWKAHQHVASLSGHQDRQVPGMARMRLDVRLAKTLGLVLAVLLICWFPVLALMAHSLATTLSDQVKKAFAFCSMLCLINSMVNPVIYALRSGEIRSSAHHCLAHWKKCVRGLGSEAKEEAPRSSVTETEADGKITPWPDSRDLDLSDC

Sequence of Cannabinoid receptor 1 (P21554 whole entry): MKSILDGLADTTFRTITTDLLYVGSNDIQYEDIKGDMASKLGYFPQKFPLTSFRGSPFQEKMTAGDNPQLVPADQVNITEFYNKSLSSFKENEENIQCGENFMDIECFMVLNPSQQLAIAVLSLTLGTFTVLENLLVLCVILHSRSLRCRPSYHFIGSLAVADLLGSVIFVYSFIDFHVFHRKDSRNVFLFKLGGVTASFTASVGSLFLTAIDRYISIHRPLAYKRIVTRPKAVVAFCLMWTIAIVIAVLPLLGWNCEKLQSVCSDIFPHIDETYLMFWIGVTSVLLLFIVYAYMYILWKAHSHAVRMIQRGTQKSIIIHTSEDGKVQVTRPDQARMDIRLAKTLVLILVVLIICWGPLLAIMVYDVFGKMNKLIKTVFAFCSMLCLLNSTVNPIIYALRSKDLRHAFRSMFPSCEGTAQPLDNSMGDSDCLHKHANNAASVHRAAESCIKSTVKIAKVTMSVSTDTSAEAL
T3 sequence (Q9Y2T6 whole entry): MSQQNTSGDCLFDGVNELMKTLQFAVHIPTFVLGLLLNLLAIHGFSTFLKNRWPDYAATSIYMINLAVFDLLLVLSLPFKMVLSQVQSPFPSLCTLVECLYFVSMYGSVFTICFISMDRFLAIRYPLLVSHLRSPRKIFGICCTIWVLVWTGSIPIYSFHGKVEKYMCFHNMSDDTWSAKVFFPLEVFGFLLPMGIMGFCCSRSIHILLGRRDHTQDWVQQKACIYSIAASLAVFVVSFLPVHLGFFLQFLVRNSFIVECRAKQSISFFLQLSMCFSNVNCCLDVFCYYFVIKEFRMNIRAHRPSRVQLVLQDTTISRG

| Imax [8] [%] | SMILES | Imax [1] [%] | IC50 [2] [µM] | %max [3] [%] | EC50 [4] [µM] | IC50 [5] [µM] | Imax [5] [%] | %max [6] [%] | EC50 [6] [µM] | Ki [7] [µM] | inhibition [7] [%] | Ki [8] [µM] | inhibition [8] [%] | Imax [7] [%] | inhibition [1] [%] |
| --- | --- | --- | --- | --- | --- | --- | --- | --- | --- | --- | --- | --- | --- | --- | --- |
|  | Cc1ccc(COc2cccc(/C=C3\N=C4SCCCN4C3=O)c2)cc1 | 61 | 3.59 | 2 | > 10 | 9.45 | 134 | -31 | > 10 | > 10 | 22 | > 10 | 25 |  |  |
|  | O=C1N=C2SCCN2/C1=C\c1cccc(OCc2ccc(Cl)cc2)c1 | 25 | > 10 | 13 | > 10 | > 10 | 19 | 2 | > 10 | 1.67 |  | > 10 | 41 | 60 |  |
|  | O=C1/C(=C/c2cccc(OCCCCCCOc3cccc(Cl)c3)c2)N=C2SCCCN12 | 55 |  | 0 | > 10 | > 10 | 37 | 28 | > 10 | > 10 | 33 | > 10 | 46 |  |  |
|  | O=C1NC(SCc2ccc(Cl)cc2)=N/C1=C\c1cccc(OCc2ccc(Cl)cc2)c1 | 35 | > 10 | 5 | > 10 | > 10 | 41 | -10 | > 10 | > 10 | 36 | > 10 | 30 |  |  |
|  | O=C1NC(SCc2ccccc2)=N/C1=C\c1cccc(OCc2ccc(Cl)cc2)c1 | 3 | > 10 | -17 | > 10 | > 10 | 17 | 21 | > 10 | > 10 | 11 | > 10 | 46 |  |  |
|  | O=C1/C(=C/c2cccc(OCCCCCOc3ccc(Cl)cc3)c2)N=C2SCCCN12 | 123 | 1.14 | -38 | > 10 | 3.77 | 124 | -21 | > 10 | > 10 | 8 | > 10 |  |  |  |
|  | CN1C(=N)NC(=O)/C1=C/c1cccc(OCc2ccc(Cl)cc2)c1 | 4 | > 10 | 6 | > 10 | > 10 | -5 | 22 | > 10 | > 10 | 43 | 22.8 |  |  |  |
|  | O=C1NC(SCc2ccc(F)cc2)=N/C1=C\c1cccc(OCc2ccc(Cl)cc2)c1 | 27 | > 10 | 23 | > 10 | > 10 | 44 | -21 | > 10 | > 10 | 42 | > 10 | 19 |  |  |
|  | CSC1=N/C(=C\c2cccc(OCc3ccc(Cl)cc3)c2)C(=O)N1C | 23 | > 10 | -2 | > 10 | > 10 | 35 | -2 | > 10 | > 10 | 19 | > 10 | 24 |  |  |
|  | O=C1/C(=C/c2cccc(OCc3ccc(F)cc3)c2)N=C2SCCCN12 | 3 | > 10 | 6 | > 10 | 4.22 | 149 | -30 | > 10 | > 10 | 35 | > 10 | 46 |  |  |
|  | CCc1ccc(OCCCCCCOc2cccc(/C=C3\N=C4SCCCN4C3=O)c2)cc1 | 99 | 25 | 0 | > 10 | > 10 | 37 | 47 | > 10 | > 10 | 13 | > 10 | 13 |  |  |
|  | O=C1/C(=C/c2cccc(OCCCCCCCOc3ccc(Cl)cc3)c2)N=C2SCCCN12 | 97 | 1.71 | 3 | > 10 | > 10 | 16 | 34 | > 10 | > 10 | 46 | > 10 | 15 |  |  |
|  | O=C1/C(=C/c2cccc(OCCOc3ccc(Cl)cc3)c2)N=C2SCCCN12 | 123 | 5 | -10 | > 10 | 10.1 | 99 | -20 | > 10 | > 10 | 21 | > 10 | -9 |  |  |
|  | O=C1/C(=C/c2cccc(OCCCCOc3ccc(Cl)cc3)c2)N=C2SCCCN12 | 116 | 2.38 | -16 | > 10 | > 10 | 26 | 11 | > 10 | > 10 |  | > 10 | 3 |  |  |
|  | O=C1NC(SCc2ccc(Br)cc2)=N/C1=C\c1cccc(OCc2ccc(Cl)cc2)c1 | 44 | 2.29 | -11 | > 10 | > 10 | 36 | 13 | > 10 | > 10 | 31 | > 10 | 36 |  |  |
|  | O=C1NC(=S)S/C1=C\c1cccc(OCc2ccc(Cl)cc2)c1 | 22 | > 10 | -38 | > 10 | > 10 | -18 | 29 | > 10 | > 10 | 47 | > 10 | 26 |  |  |
|  | O=C1/C(=C/c2cccc(OCc3ccc(Cl)cc3)c2)N=C2SCCN12 | 40 | > 10 | 1 | > 10 | > 10 | 42 | -3 | > 10 | > 10 | 18 | > 10 | 28 |  |  |
|  | O=C1/C(=C/c2cccc(OCc3ccc(Br)cc3)c2)N=C2SCCCN12 | 74 | 1.73 | -9 | > 10 | 45.8 | 116 | -19 | > 10 | > 10 | 4 | > 10 | 4 |  |  |
| 73 | CSC1=NC(=O)/C(=C/c2cccc(OCc3ccc(Cl)cc3)c2)N1 | 71 | 13.8 | 31 | > 10 | > 10 | 47 | 18 | > 10 | 2.21 |  | 0.591 |  |  |  |
|  | Cc1ccc(CSC2=N/C(=C\c3cccc(OCc4ccc(Cl)cc4)c3)C(=O)N2C)cc1 | 17 | > 10 | 7 | > 10 | > 10 | 33 | 20 | > 10 | > 10 | 15 | > 10 | 25 |  |  |
|  | O=C1NC(SCCc2ccccc2)=N/C1=C\c1cccc(OCc2ccc(Cl)cc2)c1 | 103 | 4.78 | 2 | > 10 | > 10 | 27 | 21 | > 10 | > 10 | 18 | > 10 | 33 |  |  |
|  | O=C1/C(=C/c2cccc(OCCCOc3ccc(Cl)cc3)c2)N=C2SCCCN12 | 113 | 3.25 | -16 | > 10 | > 10 | 38 | -36 | > 10 | > 10 | 18 | > 10 | -2 |  |  |
|  | Cc1cccc(C)c1OCCCCCCOc1cccc(/C=C2\N=C3SCCCN3C2=O)c1 |  | 10 | 3 | > 10 | > 10 | 32 | 33 | > 10 | > 10 | 13 | > 10 | 46 |  | 55 |
|  | O=C1/C(=C/c2cccc(OCCc3ccccc3)c2)N=C2SCCCN12 | 16 | > 10 | 8 | > 10 | 29.3 | 130 | -42 | > 10 | > 10 | 24 | > 10 | 19 |  |  |
